From patent publication US12421211B2, “Heterocyclic compounds” (Hoffmann-La Roche Inc., priority 2021, dated 2025)
Counter-ions that a name gives are not always drawn. Like-named read-outs stand apart in the source and are kept apart here.

Test system: Acinetobacter baumannii ATCC17961
Assay: Antimicrobial susceptibility testing: 90% growth inhibitory concentration (IC90) determination
Assay type: cell-based
Details: Acinetobacter baumannii, ATCC17961, 16 h, read-out: ATCC 17961 IC90
Outline: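 A. baumannii ATCC17961 at ~5×10^5 CFU/ml in Iso-Sensitest broth exposed to 10-point twofold dilutions (e.g. 50–0.097 μM final), 35±2° C. OD600 read every 20 minutes over 16h; IC50 and IC90 derived from inhibition during logarithmic growth.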

[1] = 90% growth inhibitory concentration, Acinetobacter baumannii ATCC17961, Iso-Sensitest broth, OD 600 nm over 16 h

IC90 [1] [nM] | Structure (SMILES) | IC90 [nM]
250 | COCCn1ncc(-c2ccc(-c3cnc(C(=O)Nc4ccc(C(=O)N5CCN(C(=O)C6CC[N+](CC(=O)O)(CC7CNC7)CC6)CC5)c(Cl)c4)n3C)c(C)c2F)c1C (stereo not drawn) [Example B39, 2-[1-(azetidin-3-ylmethyl)-4-[4-[2-chloro-4-[[5-[3-fluoro-4-[1-(2-methoxyethyl)-5-methyl-pyrazol-4-yl]-2-methyl-phenyl]-1-methyl-imidazole-2-carbonyl]amino]benzoyl]piperazine-1-carbonyl]piperidin-1-ium-1-yl]acetic acid; formate] | –
1800 | COCCn1ncc(-c2cc(C)c(-c3cnc(C(=O)Nc4ccc(C(=O)N5CCN(C(=O)C6CC[N+](CC(=O)O)(CC7CNC7)CC6)CC5)c(Cl)c4)n3C)cc2Cl)c1C (stereo not drawn) [Example B40, 2-[1-(azetidin-3-ylmethyl)-4-[4-[2-chloro-4-[[5-[5-chloro-4-[1-(2-methoxyethyl)-5-methyl-pyrazol-4-yl]-2-methyl-phenyl]-1-methyl-imidazole-2-carbonyl]amino]benzoyl]piperazine-1-carbonyl]piperidin-1-ium-1-yl]acetic acid; formate] | –
– | COCCn1ncc(-c2ccc(-c3cnc(C(=O)Nc4ccc(C(=O)N5CCN(C(=O)C[N+]6(C)CCC(O)C6)CC5)c(Cl)c4)n3C)c(F)c2F)c1C (stereo not drawn) [Example C1, N-[3-chloro-4-[4-[2-(3-hydroxy-1-methyl-pyrrolidin-1-ium-1-yl)acetyl]piperazine-1-carbonyl]phenyl]-5-[2,3-difluoro-4-[1-(2-methoxyethyl)-5-methyl-pyrazol-4-yl]phenyl]-1-methyl-imidazole-2-carboxamide; formate] | 45
41 | COCCn1ncc(-c2ccc(-c3cnc(C(=O)Nc4ccc(C(=O)N5CCN(C(=O)C[N+]6(C)CCC(N)C6)CC5)c(Cl)c4)n3C)c(F)c2F)c1C (stereo not drawn) [Example C2, N-[4-[4-[2-(3-amino-1-methyl-pyrrolidin-1-ium-1-yl)acetyl]piperazine-1-carbonyl]-3-chloro-phenyl]-5-[2,3-difluoro-4-[1-(2-methoxyethyl)-5-methyl-pyrazol-4-yl]phenyl]-1-methyl-imidazole-2-carboxamide; formic acid; formate] | –
100 | COCCn1cc(-c2ccc(-c3cnc(C(=O)Nc4ccc(C(=O)N5CCN(C(=O)C[N+]6(C)CCC(N)C6)CC5)c(Cl)c4)n3C)c(F)c2F)c(C)n1 (stereo not drawn) [Example C3, N-[4-[4-[2-(3-amino-1-methyl-pyrrolidin-1-ium-1-yl)acetyl]piperazine-1-carbonyl]-3-chloro-phenyl]-5-[2,3-difluoro-4-[1-(2-methoxyethyl)-3-methyl-pyrazol-4-yl]phenyl]-1-methyl-imidazole-2-carboxamide; formic acid; formate] | –
240 | COCCn1cc(-c2ccc(-c3cnc(C(=O)Nc4ccc(C(=O)N5CCN(C(=O)C[N+]6(C)C[C@H](OC)[C@@H](N)C6)CC5)c(Cl)c4)n3C)c(F)c2F)c(C)n1 (stereo partly drawn) [Example C5, N-[4-[4-[2-[(3S,4S)-3-amino-4-methoxy-1-methyl-pyrrolidin-1-ium-1-yl]acetyl]piperazine-1-carbonyl]-3-chloro-phenyl]-5-[2,3-difluoro-4-[1-(2-methoxyethyl)-3-methyl-pyrazol-4-yl]phenyl]-1-methyl-imidazole-2-carboxamide; formic acid; formate] | –
140 | COCCn1cc(-c2ccc(-c3cnc(C(=O)Nc4ccc(C(=O)N5CCN(C(=O)C[N+]6(C)CCC(O)(CN)C6)CC5)c(Cl)c4)n3C)c(F)c2F)c(C)n1 (stereo not drawn) [Example C6, N-[4-[4-[2-[3-(aminomethyl)-3-hydroxy-1-methyl-pyrrolidin-1-ium-1-yl]acetyl]piperazine-1-carbonyl]-3-chloro-phenyl]-5-[2,3-difluoro-4-[1-(2-methoxyethyl)-3-methyl-pyrazol-4-yl]phenyl]-1-methyl-imidazole-2-carboxamide; formic acid; formate] | –
140 | COCCn1cc(-c2ccc(-c3cnc(C(=O)Nc4ccc(C(=O)N5CCN(C(=O)C[N+]6(C)CCC(C(N)=O)C6)CC5)c(Cl)c4)n3C)c(F)c2F)c(C)n1 (stereo not drawn) [Example C7, N-[4-[4-[2-(3-carbamoyl-1-methyl-pyrrolidin-1-ium-1-yl)acetyl]piperazine-1-carbonyl]-3-chloro-phenyl]-5-[2,3-difluoro-4-[1-(2-methoxyethyl)-3-methyl-pyrazol-4-yl]phenyl]-1-methyl-imidazole-2-carboxamide; formate] | –
– | COCCn1cc(-c2ccc(-c3cnc(C(=O)Nc4ccc(C(=O)N5CCN(C(=O)C[N+]6(C)CC[C@@H](O)C6)CC5)c(Cl)c4)n3C)c(F)c2F)c(C)n1 (stereo partly drawn) [Example C8, N-[3-chloro-4-[4-[2-[(3R)-3-hydroxy-1-methyl-pyrrolidin-1-ium-1-yl]acetyl]piperazine-1-carbonyl]phenyl]-5-[2,3-difluoro-4-[1-(2-methoxyethyl)-3-methyl-pyrazol-4-yl]phenyl]-1-methyl-imidazole-2-carboxamide; formate] | 210
– | COCCn1cc(-c2ccc(-c3cnc(C(=O)Nc4ccc(C(=O)N5CCN(C(=O)C[N+]6(C)CC[C@H](O)C6)CC5)c(Cl)c4)n3C)c(F)c2F)c(C)n1 (stereo partly drawn) [Example C9, N-[3-chloro-4-[4-[2-[(3S)-3-hydroxy-1-methyl-pyrrolidin-1-ium-1-yl]acetyl]piperazine-1-carbonyl]phenyl]-5-[2,3-difluoro-4-[1-(2-methoxyethyl)-3-methyl-pyrazol-4-yl]phenyl]-1-methyl-imidazole-2-carboxamide; formate] | 260
– | COCCn1cc(-c2ccc(-c3cnc(C(=O)Nc4ccc(C(=O)N5CCN(C(=O)C[N+]6(C)C[C@@H](O)[C@H](O)C6)CC5)c(Cl)c4)n3C)c(F)c2F)c(C)n1 [Example C10, N-[3-chloro-4-[4-[2-[(3R,4R)-3,4-dihydroxy-1-methyl-pyrrolidin-1-ium-1-yl]acetyl]piperazine-1-carbonyl]phenyl]-5-[2,3-difluoro-4-[1-(2-methoxyethyl)-3-methyl-pyrazol-4-yl]phenyl]-1-methyl-imidazole-2-carboxamide; formate] | 280
320 | COCCn1nc(C)c(-c2ccc(-c3cnc(C(=O)Nc4ccc(C(=O)N5CCN(C(=O)C[N+]6(C)CCC(O)C6)CC5)c(Cl)c4)n3C)c(F)c2F)c1C (stereo not drawn) [Example C11, N-[3-chloro-4-[4-[2-(3-hydroxy-1-methyl-pyrrolidin-1-ium-1-yl)acetyl]piperazine-1-carbonyl]phenyl]-5-[2,3-difluoro-4-[1-(2-methoxyethyl)-3,5-dimethyl-pyrazol-4-yl]phenyl]-1-methyl-imidazole-2-carboxamide; formate] | –
82 | COCCn1ncc(-c2ccc(-c3cnc(C(=O)Nc4ccc(C(=O)N5CCN(C(=O)C[N+]6(C)CCCC6)CC5)c(Cl)c4)n3C)c(F)c2F)c1C [Example C14, N-[3-chloro-4-[4-[2-(1-methylpyrrolidin-1-ium-1-yl)acetyl]piperazine-1-carbonyl]phenyl]-5-[2,3-difluoro-4-[1-(2-methoxyethyl)-5-methyl-pyrazol-4-yl]phenyl]-1-methyl-imidazole-2-carboxamide; 2,2,2-trifluoroacetate] | –
280 | COCCn1cc(-c2ccc(-c3cnc(C(=O)Nc4ccc(C(=O)N5CCN(C(=O)[C@@H]6[C@@H](O)CC[N+]6(C)C)CC5)c(Cl)c4)n3C)c(F)c2F)c(C)n1 [Example D1, N-[3-chloro-4-[4-[(2S,3S)-3-hydroxy-1,1-dimethyl-pyrrolidin-1-ium-2-carbonyl]piperazine-1-carbonyl]phenyl]-5-[2,3-difluoro-4-[1l-(2-methoxyethyl)-3-methyl-pyrazol-4-yl]phenyl]-1-methyl-imidazole-2-carboxamide; formate] | –
210 | COCCn1cc(-c2ccc(-c3cnc(C(=O)Nc4ccc(C(=O)N5CCN(C(=O)C6CC[N+](C)(C)CC6O)CC5)c(Cl)c4)n3C)c(F)c2F)c(C)n1 (stereo not drawn) [Example D2, N-[3-chloro-4-[4-(3-hydroxy-1,1-dimethyl-piperidin-1-ium-4-carbonyl)piperazine-1-carbonyl]phenyl]-5-[2,3-difluoro-4-[1-(2-methoxyethyl)-3-methyl-pyrazol-4-yl]phenyl]-1-methyl-imidazole-2-carboxamide; formate] | –
85 | COCCn1ncc(-c2ccc(-c3cnc(C(=O)Nc4ccc(C(=O)N5CCC(C(=O)N6CC[N+](C)(C)C(CO)C6)CC5)c(Cl)c4)n3C)c(F)c2F)c1C (stereo not drawn) [Example D6, N-[3-chloro-4-[4-[3-(hydroxymethyl)-4,4-dimethyl-piperazin-4-ium-1-carbonyl]piperidine-1-carbonyl]phenyl]-5-[2,3-difluoro-4-[1-(2-methoxyethyl)-5-methyl-pyrazol-4-yl]phenyl]-1-methyl-imidazole-2-carboxamide; formate] | –
150 | COCCn1cc(-c2ccc(-c3cnc(C(=O)Nc4ccc(C(=O)N5CCN(C(=O)[C@@H]6C[C@@H](O)C[N+]6(C)C)CC5)c(Cl)c4)n3C)c(F)c2F)c(C)n1 [Example D7, N-[3-chloro-4-[4-[(2S,4R)-4-hydroxy-1,1-dimethyl-pyrrolidin-1-ium-2-carbonyl]piperazine-1-carbonyl]phenyl]-5-[2,3-difluoro-4-[1-(2-methoxyethyl)-3-methyl-pyrazol-4-yl]phenyl]-1-methyl-imidazole-2-carboxamide; formate] | –
300 | COCCn1cc(-c2ccc(-c3cnc(C(=O)Nc4ccc(C(=O)N5CCN(C(=O)[C@H]6C[C@H](O)C[N+]6(C)C)CC5)c(Cl)c4)n3C)c(F)c2F)c(C)n1 [Example D8, N-[3-chloro-4-[4-[(2R,4S)-4-hydroxy-1,1-dimethyl-pyrrolidin-1-ium-2-carbonyl]piperazine-1-carbonyl]phenyl]-5-[2,3-difluoro-4-[1-(2-methoxyethyl)-3-methyl-pyrazol-4-yl]phenyl]-1-methyl-imidazole-2-carboxamide; formate] | –
